From patent publication US20020016468A1 (published 2002)

| SMILES | melting point |
| --- | --- |
| CC[S+]([O-])c1c(C(N)=S)nn(-c2c(Cl)cc(C(F)(F)F)cc2Br)c1N (stereo not shown) | 113.5 °C |
| NC(=S)c1nn(-c2c(Cl)cc(C(F)(F)F)cc2Cl)c(N)c1SC(F)(F)F | 182 °C |
| CS(=O)(=O)c1c(C(N)=S)nn(-c2c(Cl)cc(C(F)(F)F)cc2Cl)c1N | 231 °C |
| C[S+]([O-])c1c(C(N)=S)nn(-c2c(Cl)cc(OC(F)(F)F)cc2Cl)c1N (stereo not shown) | 137 °C |
| C[S+]([O-])c1c(C(N)=S)nn(-c2ccc(C(F)(F)F)cc2Cl)c1N (stereo not shown) | 153.5 °C |

Next, values leading:

| melting point | SMILES |
| --- | --- |
| 161 °C | CSc1c(C(N)=S)nn(-c2c(Cl)cc(C(F)(F)F)cc2Cl)c1N |
| 102 °C | CC[S+]([O-])c1c(C(N)=S)nn(-c2c(Cl)cc(OC(F)(F)F)cc2Cl)c1N (stereo not shown) |
| 192 °C | C[S+]([O-])c1c(C(N)=S)nn(-c2c(Cl)cc(C(F)(F)F)cc2Cl)c1N (stereo not shown) |
| 188.5 °C | C[S+]([O-])c1c(C(N)=S)nn(-c2c(Cl)cc(C(F)(F)F)cc2Br)c1N (stereo not shown) |
| 167 °C | CC[S+]([O-])c1c(C(N)=S)nn(-c2c(Cl)cc(C(F)(F)F)cc2Cl)c1N (stereo not shown) |
